Consider one compound from patent publication US10576082B2, “ErbB2 regulates autophagic flux to modulate the proteostasis of APP-CTFs in alzheimer's disease” (Academia Sinica, priority 2016, dated 2020).

The subject of experiment [1] is APPswe/PS1ΔE9 double transgenic mice. Briefly: Morris water maze in APPswe/PS1ΔE9 transgenic mice. The experiment is classed as in vivo, mouse. Particulars: 5 mg/kg daily oral.
The subject of experiment [2] is HEK293 cells overexpressing C99-YFP. The experiment in a line: Secreted Aβ40 ELISA, conditional media of HEK293 cells overexpressing C99-YFP. In kind it is cell-based. Conditions: 1 μM, 37° C., 24 h. The protocol: Clarified lysates containing equivalent amounts of proteins were analyzed by Western blotting. (B, C) HEK293 overexpressing CFP-LC3 cells were infected with lentivirus encoding shRNA targeting LacZ ErbB2, or ErbB2 plus ATG5 for 48 h. The autophagy induction was analyzed by fluorescence confocal microscopy. The number of CFP-LC3 puncta per cell was quantified. The levels of LC3-I, LC3-II, and GAPDH were analyzed by Western blotting. (D, E) HEK293 cells overexpressing ErbB1, ErbB2, CFP-tagged C99, and YFP-tagged NΔE were infected with lentivirus encoding shRNA targeting LacZ (Ctrl), ErbB1, or ErbB2 for 48 h. […] The levels of LC3-1, LC3-II, and p62 were analyzed by Western blotting and quantified by NIH Image J. Conditional media were harvested and processed for determination of secreted Aβ40 using a colourimetric Aβ40-specific ELISA kit. […] The quantitative data are shown as mean±SD from three independent experiments, and were analyzed by Student's t-tests. * p<0.05.
Cell-based γ-secretase assays for the nuclear function of AICD or NICD. […] Cellular luminescence was determined by the addition of Steady-Glo Luciferase Assay reagents (PROMEGA™), according to the manufacturer's instructions. […] The level of secreted Aβ40 was quantified using a human Aβ40 sandwich ELISA kit (Invitrogen) according to the manufacturer's instructions.
A general note: In an ELISA, binding on a coated surface is turned into a signal by an enzyme label.

Experiment [3] concerns APPswe/PS1ΔE9 double transgenic mice. The experiment in a line: Brain Aβ40 and Aβ42 ELISA in treated APPswe/PS1ΔE9 mice. The experiment is classed as in vivo, mouse. Conditions: 5 mg/kg daily oral, 20 days, normalized to total protein.

On to `CC#CC(=O)Nc1ccc2ncnc(Nc3cccc(Br)c3)c2c1` [CL-387,785, N-[4-[(3-bromophenyl)amino]-6-quinazolinyl]-2-butynamide], for which the “probe test with invisible platform (cognitive function versus vehicle-treated AD mice)” value in experiment [1] (after 3 weeks of daily dosing (day 21)) is listed as “dramatic cognitive improvement”. Moreover, the “spatial learning (escape latency, Morris water maze)” value in experiment [1] (after 16 days of daily dosing) is recorded as “significantly enhanced spatial learning”. The “secreted Aβ40 production” value in experiment [2] is reported as “effectively decreased”. Further, in experiment [3], the “reduction in the level of Aβ40 in brain” value was “approximately 40%” and the “reduction in the level of Aβ42 in brain” value is “approximately 40%”.
